The nature of this test: Intraperitoneal insulin sensitivity test (IPIST). The class given is in vivo, mice. The note with it: fasted 16 hours, 0.5 IU/kg intraperitoneal, after 30 minutes. The method, then:
Nineteen weeks after the beginning of the study, 5 mice in each group (control diet and HFD) were weighed and subjected to an intraperitoneal insulin sensitivity test (IPIST, the protocol of which is detailed below) to check the insulin resistance of the mice. At week 20, glycaemia tests, the protocol of which is detailed below, were performed. Just after the end of these tests, mice received daily 10^9 CFU of Lactobacillus acidophilus NCFM/mouse/day by oral gavage, for 3 weeks. At week 23, animals were sacrificed after weighing and after determination of glycaemia.
Mice were fasted for 16 hours and received an intraperitoneal injection of human recombinant insulin (0.5 International Units/kg body weight); Actrapid®, Novo-Nordisk, Bagsvaerd, Denmark). Blood glucose was assayed immediately before and at 15, 30, 45, and 60 minutes after injection using a digital glucometer (Medisense Optium, Abbott, Rungis, France).

As to “insulin: human recombinant insulin (Actrapid, Novo-Nordisk) injected intraperitoneally in the IPIST test”, the “decrease of glycaemia after insulin injection” value (control diet group) is recorded as “around 70%” and the “decrease of glycaemia after insulin injection” value (high-fat diet group) is recorded as “around 45%”.
